Experiment [1] deals with Cabbage Looper (Trichoplusia ni) ("CL"). The experiment is described as follows: Bioassay on Cabbage Looper (CL), 128-well diet tray assay, percent mortality. It counts as in vivo. Particulars: Trichoplusia ni, read-out: CL. An excerpt: (§1) Bioassays on Beet Armyworm (Spodoptera exigua) (“BAW”) and Cabbage Looper (Trichoplusia ni) (“CL”)
(§2) BAW has few effective parasites, diseases, or predators to lower its population. BAW infests many weeds, trees, grasses, legumes, and field crops. In various places, it is of economic concern upon asparagus, cotton, corn, soybeans, tobacco, alfalfa, sugar beets, peppers, tomatoes, potatoes, onions, peas, sunflowers, and citrus, among other plants. The Cabbage Looper is a member of the moth family Noctuidae. It is found throughout the world. It is attacks cabbage, cauliflower, broccoli, Brussel sprouts, tomatoes, cucumbers, potatoes, kale, turnips, mustard, peppers, eggplant, watermelons, melons, squash, cantaloupe, peas, beans, collards, lettuce, spinach, celery, parsley, beets, peas, alfalfa, soybeans, and cotton. This species is very destructive to plants due to its voracious consumption of leaves. In the case of cabbage, however, they feed not only on the wrapper leaves, but also may bore into the developing head. The larvae consume three times their weight in plant material daily. The feeding sites are marked by large accumulations of sticky, wet fecal material.
(§3) Consequently, because of the above factors control of these pests is important.
(§4) Certain molecules disclosed in this document were tested against BAW and CEW using procedures described in the following examples. In the reporting of the results, the “BAW & CL Rating Table” was used (See Table Section).
Bioassays on Cabbage Looper in CL
(§5) Trays were covered with a clear self-adhesive cover and held at 25° C., 14:10 light-dark for five to seven days. Percent mortality was recorded for the larvae in each well; activity in the eight wells was then averaged. The results are indicated in the table entitled “Table ABC: Biological Results” (See Table Section).

For experiment [2], the system named is Beet Armyworm (Spodoptera exigua) ("BAW"). The experiment is described as follows: Bioassay on Beet Armyworm (BAW), 128-well diet tray assay, percent mortality. It counts as in vivo. Particulars: Spodoptera exigua, read-out: BAW.
From the text: as §1, §2, §3, §4, §5

SMILES strings stand for the structures.

As for `Cc1ccc(C(C)C)c(N2/C(=N/C(=O)NCCc3ccc(-c4ncn(-c5ccc(OC(F)(F)F)cc5)n4)cc3)SCC2C)c1` (stereo not shown) [P58, (Z)-1-(3-(2-isopropyl-5-methylphenyl)-4-methylthiazolidin-2-ylidene)-3-(4-(1-(4-(trifluoromethoxy)phenyl)-1H-1,2,4-triazol-3-yl)phenethyl)urea], the pest or weed control at 50 µg/cm2 in experiment [1] and in experiment [2] was 50 to 100% in each case.

Regarding `Cc1ccc(C(C)C)c(N2CCCS/C2=N\C(=O)NCCc2ccc(-c3ncn(-c4ccc(OC(F)(F)F)cc4)n3)cc2)c1` [P59, (Z)-1-(3-(2-isopropyl-5-methylphenyl)-1,3-thiazinan-2-ylidene)-3-(4-(1-(4-(trifluoromethoxy)phenyl)-1H-1,2,4-triazol-3-yl)phenethyl)urea], the pest or weed control at 50 µg/cm2 in experiment [1] and in experiment [2] was 50 to 100% in each case.

`Cc1ccc(C(C)C)c(N2CC(C)CS/C2=N\C(=O)NCCc2ccc(-c3ncn(-c4ccc(OC(F)(F)F)cc4)n3)cc2)c1` (stereo not shown) [P64, (Z)-1-(3-(2-isopropyl-5-methylphenyl)-5-methyl-1,3-thiazinan-2-ylidene)-3-(4-(1-(4-(trifluoromethoxy)phenyl)-1H-1,2,4-triazol-3-yl)phenethyl)urea]: the pest or weed control at 50 µg/cm2 in experiment [1] and in experiment [2] was 50 to 100% each time.

With `Cc1ccc(C(C)C)c(N2C(=O)CS/C2=N\C(=O)NC(C)C(C)c2ccc(-c3ncn(-c4ccc(OC(F)(F)F)cc4)n3)cc2)c1` (stereo not shown) [P66, (Z)-1-(3-(2-isopropyl-5-methylphenyl)-4-oxothiazolidin-2-ylidene)-3-(3-(4-(1-(4-(trifluoromethoxy)phenyl)-1H-1,2,4-triazol-3-yl)phenyl)butan-2-yl)urea], the pest or weed control at 50 µg/cm2 in experiment [1] and in experiment [2] was 50 to 100% each time.

As for `Cc1ccccc1N1C(=O)CS/C1=N\C(=O)NCCc1cccc(-c2ncn(-c3ccc(OC(F)(F)F)cc3)n2)c1` [P74, (Z)-1-(4-oxo-3-(o-tolyl)thiazolidin-2-ylidene)-3-(3-(1-(4-(trifluoromethoxy)phenyl)-1H-1,2,4-triazol-3-yl)phenethyl)urea], the pest or weed control at 50 µg/cm2 in experiment [1] and in experiment [2] was 50 to 100% throughout.

For `CCc1ccccc1N1C(=O)CS/C1=N\C(=O)NCCc1cccc(-c2ncn(-c3ccc(OC(F)(F)F)cc3)n2)c1` [P75, (Z)-1-(3-(2-ethylphenyl)-4-oxothiazolidin-2-ylidene)-3-(3-(1-(4-(trifluoromethoxy)phenyl)-1H-1,2,4-triazol-3-yl)phenethyl)urea], the pest or weed control at 50 µg/cm2 in experiment [1] and in experiment [2] was 50 to 100% throughout.

With `CC(C)c1ccccc1N1C(=O)CS/C1=N\C(=O)NCCc1cccc(-c2ncn(-c3ccc(OC(F)(F)F)cc3)n2)c1` [P76, (Z)-1-(3-(2-isopropylphenyl)-4-oxothiazolidin-2-ylidene)-3-(3-(1-(4-(trifluoromethoxy)phenyl)-1H-1,2,4-triazol-3-yl)phenethyl)urea], the pest or weed control at 50 µg/cm2 in experiment [1] and in experiment [2] was 50 to 100% in each case.

Turning to `CCCc1ccc(C)cc1N1C(=O)CS/C1=N\C(=O)NCCc1cccc(-c2ncn(-c3ccc(OC(F)(F)F)cc3)n2)c1` [P80, (Z)-1-(3-(5-methyl-2-propylphenyl)-4-oxothiazolidin-2-ylidene)-3-(3-(1-(4-(trifluoromethoxy)phenyl)-1H-1,2,4-triazol-3-yl)phenethyl)urea], the pest or weed control at 50 µg/cm2 in experiment [1] and in experiment [2] was 50 to 100% throughout.

Regarding `CCc1cccc(C)c1N1C(=O)CS/C1=N\C(=O)NCCc1cccc(-c2ncn(-c3ccc(OC(F)(F)F)cc3)n2)c1` [P83, (Z)-1-(3-(2-ethyl-6-methylphenyl)-4-oxothiazolidin-2-ylidene)-3-(3-(1-(4-(trifluoromethoxy)phenyl)-1H-1,2,4-triazol-3-yl)phenethyl)urea], the pest or weed control at 50 µg/cm2 in experiment [1] and in experiment [2] was 50 to 100% in each case.

Turning to `Cc1ccc(N2C(=O)CS/C2=N\C(=O)NCCc2cccc(-c3ncn(-c4ccc(OC(F)(F)F)cc4)n3)c2)c(C(C)C)c1` [P84, (Z)-1-(3-(2-isopropyl-4-methylphenyl)-4-oxothiazolidin-2-ylidene)-3-(3-(1-(4-(trifluoromethoxy)phenyl)-1H-1,2,4-triazol-3-yl)phenethyl)urea], the pest or weed control at 50 µg/cm2 in experiment [1] and in experiment [2] was 50 to 100% each time.

For `CC(C)c1cc(F)ccc1N1C(=O)CS/C1=N\C(=O)NCCc1cccc(-c2ncn(-c3ccc(OC(F)(F)F)cc3)n2)c1` [P85, (Z)-1-(3-(4-fluoro-2-isopropylphenyl)-4-oxothiazolidin-2-ylidene)-3-(3-(1-(4-(trifluoromethoxy)phenyl)-1H-1,2,4-triazol-3-yl)phenethyl)urea], the pest or weed control at 50 µg/cm2 in experiment [1] and in experiment [2] was 50 to 100% in each case.

As to `COc1ccc(N2C(=O)CS/C2=N\C(=O)NCCc2cccc(-c3ncn(-c4ccc(OC(F)(F)F)cc4)n3)c2)c(C)c1` [P87, (Z)-1-(3-(4-methoxy-2-methylphenyl)-4-oxothiazolidin-2-ylidene)-3-(3-(1-(4-(trifluoromethoxy)phenyl)-1H-1,2,4-triazol-3-yl)phenethyl)urea], the pest or weed control at 50 µg/cm2 in experiment [1] and in experiment [2] was 50 to 100% each time.

As for `Cc1ccccc1N1C(=O)CS/C1=N\C(=O)NCCCc1ccc(-c2ncn(-c3ccc(OC(F)(F)F)cc3)n2)cc1` [P92, (Z)-1-(4-oxo-3-(o-tolyl)thiazolidin-2-ylidene)-3-(3-(4-(1-(4-(trifluoromethoxy)phenyl)-1H-1,2,4-triazol-3-yl)phenyl)propyl)urea], the pest or weed control at 50 µg/cm2 in experiment [1] and in experiment [2] was 50 to 100% in each case.

Take `CCc1ccccc1N1C(=O)CS/C1=N\C(=O)NCCCc1ccc(-c2ncn(-c3ccc(OC(F)(F)F)cc3)n2)cc1` [P93, (Z)-1-(3-(2-ethylphenyl)-4-oxothiazolidin-2-ylidene)-3-(3-(4-(1-(4-(trifluoromethoxy)phenyl)-1H-1,2,4-triazol-3-yl)phenyl)propyl)urea]: the pest or weed control at 50 µg/cm2 in experiment [1] and in experiment [2] was 50 to 100% each time.

As to `CC(C)c1ccccc1N1C(=O)CS/C1=N\C(=O)NCCCc1ccc(-c2ncn(-c3ccc(OC(F)(F)F)cc3)n2)cc1` [P94, (Z)-1-(3-(2-isopropylphenyl)-4-oxothiazolidin-2-ylidene)-3-(3-(4-(1-(4-(trifluoromethoxy)phenyl)-1H-1,2,4-triazol-3-yl)phenyl)propyl)urea], the pest or weed control at 50 µg/cm2 in experiment [1] and in experiment [2] was 50 to 100% throughout.

As for `CCCc1ccc(C)cc1N1C(=O)CS/C1=N\C(=O)NCCCc1ccc(-c2ncn(-c3ccc(OC(F)(F)F)cc3)n2)cc1` [P99, (Z)-1-(3-(5-methyl-2-propylphenyl)-4-oxothiazolidin-2-ylidene)-3-(3-(4-(1-(4-(trifluoromethoxy)phenyl)-1H-1,2,4-triazol-3-yl)phenyl)propyl)urea], the pest or weed control at 50 µg/cm2 in experiment [1] and in experiment [2] was 50 to 100% each time.

As for `CCc1cccc(C)c1N1C(=O)CS/C1=N\C(=O)NCCCc1ccc(-c2ncn(-c3ccc(OC(F)(F)F)cc3)n2)cc1` [P101, (Z)-1-(3-(2-ethyl-6-methylphenyl)-4-oxothiazolidin-2-ylidene)-3-(3-(4-(1-(4-(trifluoromethoxy)phenyl)-1H-1,2,4-triazol-3-yl)phenyl)propyl)urea], the pest or weed control at 50 µg/cm2 in experiment [1] was 50 to 100%; in experiment [2], 0 to 50%.

Regarding `Cc1ccc(N2C(=O)CS/C2=N\C(=O)NCCCc2ccc(-c3ncn(-c4ccc(OC(F)(F)F)cc4)n3)cc2)c(C(C)C)c1` [P102, (Z)-1-(3-(2-isopropyl-4-methylphenyl)-4-oxothiazolidin-2-ylidene)-3-(3-(4-(1-(4-(trifluoromethoxy)phenyl)-1H-1,2,4-triazol-3-yl)phenyl)propyl)urea], the pest or weed control at 50 µg/cm2 in experiment [1] and in experiment [2] was 50 to 100% each time.

Consider `CC(C)c1cc(F)ccc1N1C(=O)CS/C1=N\C(=O)NCCCc1ccc(-c2ncn(-c3ccc(OC(F)(F)F)cc3)n2)cc1` [P103, (Z)-1-(3-(4-fluoro-2-isopropylphenyl)-4-oxothiazolidin-2-ylidene)-3-(3-(4-(1-(4-(trifluoromethoxy)phenyl)-1H-1,2,4-triazol-3-yl)phenyl)propyl)urea], for which the pest or weed control at 50 µg/cm2 in experiment [1] and in experiment [2] was 50 to 100% each time.

Consider `COc1ccc(N2C(=O)CS/C2=N\C(=O)NCCCc2ccc(-c3ncn(-c4ccc(OC(F)(F)F)cc4)n3)cc2)c(C)c1` [P105, (Z)-1-(3-(4-methoxy-2-methylphenyl)-4-oxothiazolidin-2-ylidene)-3-(3-(4-(1-(4-(trifluoromethoxy)phenyl)-1H-1,2,4-triazol-3-yl)phenyl)propyl)urea], for which the pest or weed control at 50 µg/cm2 in experiment [1] and in experiment [2] was 50 to 100% throughout.

Values taken from patent publication US20140274688A1, “MOLECULES HAVING CERTAIN PESTICIDAL UTILITIES, AND INTERMEDIATES, COMPOSITIONS, AND PROCESSES RELATED THERETO” (DOW AGROSCIENCES LLC, priority 2013, published 2014).
